Data set [1] can be described thus: Hydrolytic degradation kinetics of neat monomers by 1H NMR. It counts as physicochemical. The note with it: for Percent remaining monomer: 50 mM monomer, aqueous pH=1, 37° C.; for final degradation percentage: over one month, acidic aqueous conditions (pH=1); for half-life at 50 mM: fit to exponential decay curves, pH=1, read-out: monomer half-life (converted). On the procedure: Neat monomers were subject to the hydrolytic degradation kinetics assay. An aqueous solution (pH=1) was prepared using HPLC grade water and adjusted using 1.0 M HCI. A 50 mM solution of each monomer (n=3) was prepared using 1.0 mL of the acidic aqueous solution. A capillary tube was filled with a 50 mM solution of tetramethylammonium bromide dissolved in D2O and flame sealed. The capillary tube was placed at the bottom on the NMR tube to allow the “locking on” of the instrument and to act as an internal standard. ^1H NMR spectra were obtained using a water suppression by excitation sculpting experiment. After the initial reading, the NMR tubes were flame sealed and incubated at 37° C. During the first week and after 12, 19, and 30 days, the samples were removed from incubation to obtain water suppressed ^1H NMR spectra. To determine the amount of monomer degradation, spectra were first aligned using the ITSD singlet peak and then an integration region unique to a monomer vinyl proton and an integration region unique to a degradation product (methacrylic or acrylic acid) vinyl proton were used to calculate the ratio of monomer to degradation product. […] Additional integration regions on either side of the vinyl region were used to determine the average amount of noise in each spectra. Degradation product values with a signal to noise ratio of less than 10 were considered to show no measurable amount of degradation.

Data set [2] has as its system odontoblast-like cell line (OD-21). Kind of data set: Cytotoxicity (MTT) assay, OD-21 cells. The following applies: for IC50: read-out: IC50 OD-21; for cell viability, comparison between monomers: OD-21, at 10 and 5 mM. On the procedure: (§1) For the cytotoxicity assay, two cell types were tested—odontoblast-like cell line (OD-21) and human dental pulp stem cells (hDPSC) (cat #PT5025, Lonza). […] Cells were kept in an incubator at 37° C., under humidified atmosphere with 5% CO 2 for 2-3 days until confluence was reached. Next, cells were washed with Dulbecco's phosphate buffered saline solution (PBS—Thermo Fisher Scientific) and detached from the culture flasks using 0.05% trypsin/0.02% EDTA (Sigma). Cells were counted using a hemocytometer, then 10,000 cells per well were seeded in 96-well plates for 24 hours (n=6).
(§2) From these stocks, six different concentrated solutions (0.05, 0.1, 0.5, 1, 5 and 10 mM) were prepared in cell culture medium (DMEM for OD-21 and α-MEM for DPSC) and 100 μl per well was used to incubate the cells.
(§3) Next, 200 μl of DMSO was added to each well, plates were gently agitated and the optical density was read at 570 nm and 630 nm in a spectrophotometer (Epoch Microplate Spectrophotometer, BioTek Instruments Inc, Winooski, VT, USA). OD-21 and DPSCs cultured in the medium free from the monomers were used as negative controls. Additionally, since monomer fluorescence could affect the readings, 10 mM samples of each tested monomer were incubated without cells and their absorbance measured to provide a second control (i.e. medium control). The percentage of cell viability was calculated according to the equations:
(§4) ODcells=(OD570 exper−OD630 exper)−(OD570 med contr−OD630 med contr) Equation (3)
(§5) where: ODcell is the absorbance of the remaining cells after exposure; ODexper is the absorbance of the experimental specimens at 570 nm and 630 nm; ODmed contr is the absorbance of the 10 mM solution of each monomer without cells at 570 nm and 630 nm.
(§6) where: CV (%) is percentage of cell viability in relation to the negative control (cells+medium free from the monomers); ODcells neg contr is the cells absorbance of the negative control; ODcells exper is the cells absorbance of the experimental samples.
(§7) The half maximal inhibitory concentration (IC50) of each tested monomer was determined based on the plots of cell inhibition (%) as a function of the monomers concentration (mM) using GraphPad software.

In data set [3] the test system is human dental pulp stem cells (hDPSC). Kind of data set: Cytotoxicity (MTT) assay, hDPSC. The note with it: for IC50: read-out: IC50 DPSC; for biocompatibility compared with methacrylates: DPSC. On the procedure:
as §1, §2, §3, §4, §5, §6, §7

The nature of data set [4]: Partition coefficient (logP). The note with it: values not given; source of logP not stated. It is filed as physicochemical. The source says: When stored dry, all materials had flexural strengths and elastic moduli that were statistically similar to the control. […] […]. The logP determines the likelihood of a compound to partition into water or octanol, with the most hydrophilic compounds presenting lower logP values. Amides are in general more hydrophilic than methacrylates because of the […] of the nitrogen atom in the amide compared to the oxygen in the methacrylate. In addition, the presence of a lone pair of electrons on the nitrogen leads to stabilization of the carbon-nitrogen bond by resonance with the carbonyl. The oxygen in the amide, in turn, assumes a partial negative charge (δ−), making it more prone to function as a hydrogen-bond acceptor. Conversely, the hydrogen of the N-H dipole is partially positively charged (δ+), which renders it a hydrogen-bond donor.

A short description of data set [5]: Cytotoxicity (MTT) assay, OD-21 cells. The note with it: mouse. On the procedure:
as §1, §2, §3, §4, §5, §6, §7

Setting [6] is: neat monomer, 24 hours exposure, MTT.

Read-outs that look alike come from different tables or passages of the source.

The source of these data is patent publication US20240052079A1 (OREGON HEALTH & SCIENCE UNIVERSITY, priority 2021, published 2024).

Regarding `C=CC(=O)NN1CCCN(NC(=O)C=C)CC1` [BAADA, N,N′-bis(acrylamido) 1,4-diazepane], the Percent remaining monomer is reported as 100.0 ± 0.0% in data set [1] (day 0); 100.0 ± 0.0% in data set [1] (day 1); 100.0 ± 0.0% in data set [1] (day 2); 100.0 ± 0.0% in data set [1] (day 3); 99.8 ± 0.2% in data set [1] (day 4); 100.0 ± 0.0% in data set [1] (day 6). Besides, the Percent remaining monomer turned out to be 99.6 ± 0.4% in data set [1] (day 12), 92.3 ± 0.7% in data set [1] (day 19) and 98.9 ± 1.2% in data set [1] (day 30). In addition, the final degradation percentage in data set [1] is 1.13%. The IC50 in data set [2] (Mus musculus, 24 h) was 9.98 mM; in data set [3] (Homo sapiens, 24 h) it was 3.65 mM.

On to `C=C(C)C(=O)OCCO` [HEMA, 2-hydroxyethyl methacrylate, reference compound], for which the Percent remaining monomer in data set [1] (day 0) was found to be 99.2 ± 0.6%; in data set [1] (day 1) it was 93.1 ± 0.04%; in data set [1] (day 2), 87.6 ± 0.02%; in data set [1] (day 3), 81.3 ± 0.02%; in data set [1] (day 4), 76.5 ± 0.01%; in data set [1] (day 5), 71.3 ± 0.02%. Also, the Percent remaining monomer in data set [1] (day 6) is on record as 66.1 ± 0.02%; in data set [1] (day 7), 61.9 ± 0.01%; in data set [1] (day 12) it was 43.1 ± 0.02%; in data set [1] (day 19), 25.2 ± 0.02%; in data set [1] (day 30), 10.6 ± 0.1%. Besides, in data set [1], the half-life at 50 mM is 9.5 days. The molecule also registered a final degradation percentage in data set [1] of 89.38%. The IC50 was 15.4 mM in data set [2] (Mus musculus, 24 h) and 6.87 mM in data set [3] (Homo sapiens, 24 h). For the same molecule, in data set [2], the “cell viability, comparison between monomers” value was “the highest”.

`C=CC(=O)N(C)CCN(CCN(C)C(=O)C=C)CCN(C)C(=O)C=C`: the Percent remaining monomer in data set [1] (day 0) is listed as 100.0 ± 0.0%; in data set [1] (day 1), 99.8 ± 0.2%; in data set [1] (day 2), 99.8 ± 0.2%; in data set [1] (day 3) it was 99.3 ± 0.7%; in data set [1] (day 4), 99.2 ± 0.9%; in data set [1] (day 5), 99.1 ± 0.7%. Besides, the Percent remaining monomer in data set [1] (day 6) was 99.0 ± 1.0%; in data set [1] (day 7), 98.7 ± 1.3%; in data set [1] (day 19) it was 96.7 ± 1.8%; in data set [1] (day 30), 93.7 ± 0.7%. In addition, the half-life at 50 mM in data set [1] is 350 days. Further, the final degradation percentage in data set [1] is 6.29%. Besides, the IC50 in data set [2] (Mus musculus, 24 h) is 8.02 mM; in data set [3] (Homo sapiens, 24 h) it was 1.07 mM. Further, in data set [3] (0.5 mM), the “biocompatibility compared with methacrylates” value was “less biocompatible than the tested methacrylates”. Besides, the “logP, ranking among tested monomers” value in data set [4] is listed as “lower logP”.

Take “N,N-Diethyl-1,3-bis(acrylamido)propane [DEBAAP, reference compound]”: the IC50 amounted to 7.11 mM in data set [2] (setting [6]) and 8.43 mM in data set [3] (setting [6]).

For “urethane dimethacrylate [UDMA, reference compound]”, the values for the IC50 in data set [2] (setting [6]) and in data set [3] (setting [6]) were 7.94 mM and 10.3 mM, respectively.

In the case of `C=CC(=O)N(C)CCCN(C)CCCN(C)C(=O)C=C`, the Percent remaining monomer worked out at 100.0 ± 0.0% in data set [1] (day 0); 99.8 ± 0.01% in data set [1] (day 1); 100.0 ± 0.0% in data set [1] (day 2); 100.0 ± 0.0% in data set [1] (day 3); 100.0 ± 0.0% in data set [1] (day 4); 99.7 ± 0.01% in data set [1] (day 5). For the same molecule, the Percent remaining monomer in data set [1] (day 6) turned out to be 100.0 ± 0.0%; in data set [1] (day 7) it was 100.0 ± 0.0%; in data set [1] (day 12), 100.0 ± 0.0%; in data set [1] (day 19), 99.7 ± 0.3%; in data set [1] (day 30), 98.7 ± 1.3%. Also, the final degradation percentage in data set [1] was found to be 1.27%. The viability at 24 h, 5 mM in data set [5] worked out at 24%. Moreover, the viability at 24 h, 10 mM in data set [5] turned out to be 12%. Moreover, the IC50 amounted to 4.75 mM in data set [2] (Mus musculus, 24 h) and 0.54 mM in data set [3] (Homo sapiens, 24 h). Further, the “cell viability, comparison between monomers” value in data set [2] was “the lowest cell viability”. In addition, the “biocompatibility compared with methacrylates” value in data set [3] (5 mM) is “less biocompatible than the tested methacrylates”.

By IC50 is commonly meant the point on the concentration scale where inhibition reaches its midpoint. For orientation: half-life means how long it takes for the measured level to halve. Usually viability stands for a read-out of living cells in per cent, often relative to untreated cells.
